Data published in patent publication US20240199564A1, “TRPM8 AGONISTS AS COOLING AGENTS AND FOR THE TREATMENT OF DISEASE” (Concentric Analgesics, Inc., priority 2021, published 2024).
Counter-ions that a name gives are not always drawn.

biological target: T1, human TRPM8 receptor expressed in transfected 293H cells (Homo sapiens, UniProt Q7Z2W7); test: TRPM8 Human Transient Potential Ion Channel Cell Based Agonist Calcium Flux Assay (FLIPR); conditions: Ca2+ mobilization, fluorometric detection, 293H cells; response relative to 3 μM icilin; read-out: TRPM8 agonist EC50
T1 construct: expressed in transfected cells; host or cells: 293H cells
T1 sequence (Q7Z2W7 whole entry): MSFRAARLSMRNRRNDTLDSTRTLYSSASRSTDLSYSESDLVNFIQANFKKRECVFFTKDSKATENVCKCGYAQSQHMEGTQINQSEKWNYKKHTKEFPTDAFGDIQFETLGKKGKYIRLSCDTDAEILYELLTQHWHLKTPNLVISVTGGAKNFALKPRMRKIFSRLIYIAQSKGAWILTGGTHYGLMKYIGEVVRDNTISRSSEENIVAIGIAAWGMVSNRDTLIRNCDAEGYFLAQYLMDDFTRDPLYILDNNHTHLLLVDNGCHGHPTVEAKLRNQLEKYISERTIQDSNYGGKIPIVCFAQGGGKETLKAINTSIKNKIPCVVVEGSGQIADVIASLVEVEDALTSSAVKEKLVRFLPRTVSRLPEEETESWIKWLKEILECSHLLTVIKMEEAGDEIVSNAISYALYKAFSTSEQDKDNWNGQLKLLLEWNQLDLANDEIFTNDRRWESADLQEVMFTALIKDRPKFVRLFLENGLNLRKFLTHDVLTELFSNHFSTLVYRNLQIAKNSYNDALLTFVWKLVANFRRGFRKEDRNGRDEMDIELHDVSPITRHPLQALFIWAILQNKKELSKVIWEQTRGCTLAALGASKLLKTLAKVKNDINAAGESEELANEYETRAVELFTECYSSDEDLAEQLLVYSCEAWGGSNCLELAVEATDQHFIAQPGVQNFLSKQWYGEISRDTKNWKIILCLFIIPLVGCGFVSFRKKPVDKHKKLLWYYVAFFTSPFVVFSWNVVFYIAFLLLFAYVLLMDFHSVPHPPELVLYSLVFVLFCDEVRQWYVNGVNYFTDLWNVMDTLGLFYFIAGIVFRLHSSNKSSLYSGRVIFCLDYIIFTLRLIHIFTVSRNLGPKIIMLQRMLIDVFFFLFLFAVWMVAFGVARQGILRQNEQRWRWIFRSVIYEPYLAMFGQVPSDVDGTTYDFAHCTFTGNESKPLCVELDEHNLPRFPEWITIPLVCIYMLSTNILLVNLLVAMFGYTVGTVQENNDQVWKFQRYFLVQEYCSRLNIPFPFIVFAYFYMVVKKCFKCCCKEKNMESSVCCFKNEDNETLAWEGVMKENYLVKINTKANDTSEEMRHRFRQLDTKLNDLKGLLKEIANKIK
Text: This example discloses results from TRPM8 Human Transient Potential Ion Channel Cell Based Agonist Calcium Flux Assay. Evaluation of the agonist activity of compounds at the human TRPM8 receptor expressed in transfected 293H cells, determined by measuring their effect on cytosolic Ca2+ ion mobilization using a fluorometric detection method.
Protocol: The cells are suspended in DMEM buffer (Invitrogen), then distributed in microplates at a density of 3×10^4 cells/well. The fluorescent probe (Fluo4 Direct, Invitrogen) in HBSS buffer (Invitrogen) complemented with 20 mM Hepes (Invitrogen) (pH 7.4) is then added into each well and equilibrated with the cells for 60 min at 37° C. then 15 min at 22° C. Thereafter, the assay plates are positioned in a microplate reader (CellLux, PerkinElmer) which is used for the addition of the test compound, reference agonist or HBSS buffer (basal control), and the measurements of changes in fluorescence intensity which varies proportionally to the free cytosolic Ca2+ ion concentration. For stimulated control measurements, Icilin at 3 μM is added in separate assay wells. The results are expressed as a percent of the control response to 3 μM icilin. The standard reference agonist is Icilin, which is tested in each experiment at several concentrations to generate a concentration-response curve from which its EC50 value is calculated. (Behrendt, H. J., Germann, T., Gillen, C and Hatt, H. and Jostock, R. (2004), Characterization of the mouse cold-menthol receptor TRPM8 and vanilloid receptor type-1 VR1 using a fluorometric imaging plate reader (FLIPR) assay, Br. J. Pharmacol., 141: 737.)
Data analysis: EC50 values were determined as the concentration of test substance required to produce half-maximal increases in [Ca^2+]. Maximal [Ca^2+] responses were measured as peak fluorescence intensity (FI) minus basal FI, and expressed as percentages of the maximum response to icilin. Data are given as means±s.e.m., unless otherwise stated.
The EC50 values (concentration producing a half-maximal response) and IC50 values (concentration causing a half-maximal inhibition of the control agonist response) were determined by non-linear regression analysis of the concentration-response curves generated with mean replicate values using Hill equation curve fitting:
where Y=response, A=left asymptote of the curve, D=right asymptote of the curve, C=compound concentration, and C50=EC50, and nH=slope factor.

SMILES | EC50 [nM]
CC(C)[C@@H]1CC[C@@H](C)C[C@H]1C(=O)NCc1cccc(N2CCN(C(=O)CN)CC2)c1 [Compound 6, (1R,2S,5R)-N-(3-(4-(2-aminoacetyl)piperazin-1-yl)benzyl)-2-isopropyl-5-methylcyclohexanecarboxamide dihydrochloride] | 377
CC(C)[C@@H]1CC[C@@H](C)C[C@H]1C(=O)NCc1ccccc1N1CCN(C(=O)CN)CC1 [Compound 9, (1R,2S,5R)-N-(2-(4-(2-aminoacetyl)piperazin-1-yl)benzyl)-2-isopropyl-5-methylcyclohexanecarboxamide dihydrochloride] | > 10000
CC(C)[C@@H]1CC[C@@H](C)C[C@H]1C(=O)NCc1cccc(N2CCNCC2)c1 [Compound 5, (1R,2S,5R)-2-isopropyl-5-methyl-N-(3-(piperazin-1-yl)benzyl)cyclohexanecarboxamide dihydrochloride] | 220
CC(C)[C@@H]1CC[C@@H](C)C[C@H]1OCC(=O)NCc1ccc(CN)cc1 [Compound 2, N-(4-(aminomethyl)benzyl)-2-(((1R,2S,5R)-2-isopropyl-5-methylcyclohexyl)oxy)acetamide hydrochloride] | 3310
CC(C)[C@@H]1CC[C@@H](C)C[C@H]1C(=O)NCc1ccc(CN(C)C)cc1 [Compound 21, (1R,2S,5R)-N-(4-((dimethylamino)methyl)benzyl)-2-isopropyl-5-methylcyclohexanecarboxamide hydrochloride] | 421
CC(C)[C@@H]1CC[C@@H](C)C[C@H]1C(=O)NCc1ccc(CN2CCOCC2)cc1 [Compound 22, (1R,2S,5R)-2-isopropyl-5-methyl-N-(4-(morpholinomethyl)benzyl)cyclohexanecarboxamide hydrochloride] | 890
CC(C)[C@@H]1CC[C@@H](C)C[C@H]1OCC(=O)N(C)Cc1cccc(CN(C)C)c1 [Compound 1, N-(3-((dimethylamino)methyl)benzyl)-2-(((1R,2S,5R)-2-isopropyl-5-methylcyclohexyl)oxy)-N-methylacetamide hydrochloride] | 973
CC(C)[C@@H]1CC[C@@H](C)C[C@H]1C(=O)NCc1ccc(CNC(=O)CN)cc1 [Compound 7, (1R,2S,5R)-N-(4-((2-aminoacetamido)methyl)benzyl)-2-isopropyl-5-methylcyclohexanecarboxamide hydrochloride] | 511

These reach a lower EC50. Values come first.

EC50 [nM] | SMILES
96 | CC(C)[C@@H]1CC[C@@H](C)C[C@H]1C(=O)NCc1ccc(CN)cc1F [Compound 14, (1R,2S,5R)-N-(4-(aminomethyl)-2-fluorobenzyl)-2-isopropyl-5-methylcyclohexanecarboxamide hydrochloride]
150 | CC(C)[C@@H]1CC[C@@H](C)C[C@H]1C(=O)NCc1ccc(CN2CCCC2)cc1 [Compound 20, (1R,2S,5R)-2-isopropyl-5-methyl-N-(4-(pyrrolidin-1-ylmethyl)benzyl)cyclohexanecarboxamide hydrochloride]
198 | CC(C)[C@@H]1CC[C@@H](C)C[C@H]1C(=O)NCc1ccc(CCN)cc1 [Compound 12, (1R,2S,5R)-N-(4-(2-aminoethyl)benzyl)-2-isopropyl-5-methylcyclohexanecarboxamide hydrochloride]
170 | CC(C)[C@@H]1CC[C@@H](C)C[C@H]1C(=O)NCc1ccc2c(c1)CCNC2 [Compound 11, (1R,2S,5R)-2-isopropyl-5-methyl-N-((1,2,3,4-tetrahydroisoquinolin-6-yl)methyl)cyclohexanecarboxamide hydrochloride]
58 | CC(C)[C@@H]1CC[C@@H](C)C[C@H]1C(=O)NCc1cc(CN)ccn1 [Compound 17, (1R,2S,5R)-N-((4-(aminomethyl)pyridin-2-yl)methyl)-2-isopropyl-5-methylcyclohexanecarboxamide hydrochloride]
207 | CC(C)[C@@H]1CC[C@@H](C)C[C@H]1C(=O)NCc1ccc(COC2CCNCC2)cc1 [Compound 18, (1R,2S,5R)-2-isopropyl-5-methyl-N-(4-((piperidin-4-yloxy)methyl)benzyl)cyclohexanecarboxamide hydrochloride]
